Test results taken from US20130072430A1, “METHODS FOR TREATMENT OR PROPHYLAXIS OF KIDNEY OR LIVER DYSFUNCTION” (NPS PHARMACEUTICALS, INC., priority 2010, published 2013).

Test system: Human patients with short bowel syndrome
Experiment: Example 1: liver diagnostic biomarkers (total bilirubin, ALT, AST, ALP) in short bowel syndrome patients, every four weeks for 24 weeks
Format: in vivo
Protocol: Human patients with short bowel syndrome were divided into three groups: a control group (16 total individuals) to receive placebo, an experimental group (35 total individuals) to receive teduglutide at 0.05 mg/kg/day throughout the study, and an experimental group (32 total individuals) to receive teduglutide at 0.1 mg/kg/day throughout the study. Patients were treated by subcutaneous injection of placebo or the appropriate dose of teduglutide. As individuals with short bowel syndrome are likely to experience associated liver and kidney disease, known biomarkers of liver and kidney function were monitored every four weeks, for 24 weeks. The liver biomarkers tested included total bilirubin, ALT and AST and ALP. The kidney biomarkers tested included urea nitrogen, creatinine and GFR. Before administration of placebo or teduglutide, diagnostic biomarker levels were tested to establish a baseline for each individual.
To visualize the effect of GLP-2 on the levels of the diagnostic biomarkers, the average change from baseline was calculated for the placebo and teduglutide treated groups for each visit after a baseline was established. The average change from baseline of each group is depicted in FIGS. […]. The numerical figures for each diaanostic biomarker at each time point are depicted in Table 1.
The efficacy of teduglutide in treating liver dysfunction was further tested by sorting the data into two groups: individuals with abnormal baseline values of liver diagnostic biomarkers; and individuals with normal baseline values of liver diagnostic biomarkers. The mean diagnostic biomarker change from baseline for these two groups is shown for ALT (FIGS. 5 and 6) and AST (FIGS. 7 and 8). […] These changes were significant when compared to baseline levels for the group, and when compared to placebo (see FIGS. 5 and 7).
The raw data for this sorting is reproduced in Table 2 below.

[1] = Week 12, range −5%<= and <=5%, teduglutide 0.05 mg/kg/day
[2] = Week 12, range −5%<= and <=5%, teduglutide 0.1 mg/kg/day
[3] = Week 16, range <−5%, teduglutide 0.05 mg/kg/day
[4] = Week 16, range <−5%, teduglutide 0.1 mg/kg/day
[5] = Week 16, range >5%, teduglutide 0.05 mg/kg/day
[6] = Week 16, range >5%, teduglutide 0.1 mg/kg/day
[7] = Week 16, range −5%<= and <=5%, teduglutide 0.05 mg/kg/day
[8] = Week 16, range −5%<= and <=5%, teduglutide 0.1 mg/kg/day
[9] = Week 20, range <−5%, teduglutide 0.05 mg/kg/day
[10] = Week 20, range <−5%, teduglutide 0.1 mg/kg/day
[11] = Week 20, range >5%, teduglutide 0.05 mg/kg/day
[12] = Week 20, range >5%, teduglutide 0.1 mg/kg/day
[13] = Week 20, range −5%<= and <=5%, teduglutide 0.05 mg/kg/day
[14] = Week 20, range −5%<= and <=5%, teduglutide 0.1 mg/kg/day
[15] = Week 24, range <−5%, teduglutide 0.05 mg/kg/day
[16] = Week 24, range <−5%, teduglutide 0.1 mg/kg/day
[17] = Week 24, range >5%, teduglutide 0.05 mg/kg/day
[18] = Week 24, range >5%, teduglutide 0.1 mg/kg/day
[19] = Week 24, range −5%<= and <=5%, teduglutide 0.05 mg/kg/day
[20] = Week 24, range −5%<= and <=5%, teduglutide 0.1 mg/kg/day
[21] = compared to baseline and to placebo

CC[C@H](C)[C@H](NC(=O)[C@H](Cc1ccccc1)NC(=O)[C@H](CC(=O)O)NC(=O)[C@H](CCCNC(=N)N)NC(=O)[C@H](C)NC(=O)[C@H](C)NC(=O)[C@H](CC(C)C)NC(=O)[C@H](CC(N)=O)NC(=O)[C@H](CC(=O)O)NC(=O)[C@H](CC(C)C)NC(=O)[C@@H](NC(=O)[C@@H](NC(=O)[C@H](CC(N)=O)NC(=O)[C@H](CCSC)NC(=O)[C@H](CCC(=O)O)NC(=O)[C@H](CC(=O)O)NC(=O)[C@H](CO)NC(=O)[C@H](Cc1ccccc1)NC(=O)[C@H](CO)NC(=O)CNC(=O)[C@H](CC(=O)O)NC(=O)CNC(=O)[C@@H](N)Cc1c[nH]cn1)[C@@H](C)O)[C@@H](C)CC)C(=O)N[C@@H](CC(N)=O)C(=O)N[C@@H](Cc1c[nH]c2ccccc12)C(=O)N[C@@H](CC(C)C)C(=O)N[C@H](C(=O)N[C@@H](CCC(N)=O)C(=O)N[C@H](C(=O)N[C@@H](CCCCN)C(=O)N[C@H](C(=O)N[C@H](C(=O)N[C@@H](CC(=O)O)C(=O)O)[C@@H](C)O)[C@@H](C)CC)[C@@H](C)O)[C@@H](C)CC [teduglutide]
ALT (SGPT) change from baseline: patients in range, n(%) [1]: 4(11.4%)
AST (SGOT) change from baseline: patients in range, n(%) [1]: 3(8.6%)
TOTAL BILIRUBIN change from baseline: patients in range, n(%) [1]: 4(11.4%)
ALKALINE PHOSPHATASE change from baseline: patients in range, n(%) [2]: 1(3.1%)
ALT (SGPT) change from baseline: patients in range, n(%) [2]: 2(6.3%)
AST (SGOT) change from baseline: patients in range, n(%) [2]: 3(9.4%)
TOTAL BILIRUBIN change from baseline: patients in range, n(%) [2]: 6(18.8%)
ALKALINE PHOSPHATASE change from baseline: patients in range, n(%) [3]: 20(57.1%)
AST (SGOT) change from baseline: patients in range, n(%) [3]: 14(40.0%)
TOTAL BILIRUBIN change from baseline: patients in range, n(%) [3]: 14(40.0%)
ALKALINE PHOSPHATASE change from baseline: patients in range, n(%) [4]: 21(65.6%)
AST (SGOT) change from baseline: patients in range, n(%) [4]: 18(56.3%)
TOTAL BILIRUBIN change from baseline: patients in range, n(%) [4]: 14(43.8%)
ALKALINE PHOSPHATASE change from baseline: patients in range, n(%) [5]: 6(17.1%)
ALT (SGPT) change from baseline: patients in range, n(%) [5]: 12(34.3%)
AST (SGOT) change from baseline: patients in range, n(%) [5]: 8(22.9%)
TOTAL BILIRUBIN change from baseline: patients in range, n(%) [5]: 9(25.7%)
ALKALINE PHOSPHATASE change from baseline: patients in range, n(%) [6]: 7(21.9%)
ALT (SGPT) change from baseline: patients in range, n(%) [6]: 9(28.1%)
AST (SGOT) change from baseline: patients in range, n(%) [6]: 8(25.0%)
TOTAL BILIRUBIN change from baseline: patients in range, n(%) [6]: 6(18.8%)
ALT (SGPT) change from baseline: patients in range, n(%) (Week 16, range >−5%, teduglutide 0.05 mg/kg/day): 16(45.7%)
ALT (SGPT) change from baseline: patients in range, n(%) (Week 16, range >−5%, teduglutide 0.1 mg/kg/day): 19(59.4%)
ALKALINE PHOSPHATASE change from baseline: patients in range, n(%) [7]: 2(5.7%)
ALT (SGPT) change from baseline: patients in range, n(%) [7]: 0(0.0%)
AST (SGOT) change from baseline: patients in range, n(%) [7]: 6(17.1%)
TOTAL BILIRUBIN change from baseline: patients in range, n(%) [7]: 3(8.6%)
ALKALINE PHOSPHATASE change from baseline: patients in range, n(%) [8]: 2(6.3%)
ALT (SGPT) change from baseline: patients in range, n(%) [8]: 2(6.3%)
AST (SGOT) change from baseline: patients in range, n(%) [8]: 3(9.4%)
TOTAL BILIRUBIN change from baseline: patients in range, n(%) [8]: 8(25.0%)
ALKALINE PHOSPHATASE change from baseline: patients in range, n(%) [9]: 22(62.9%)
ALT (SGPT) change from baseline: patients in range, n(%) [9]: 17(48.6%)
AST (SGOT) change from baseline: patients in range, n(%) [9]: 17(48.6%)
TOTAL BILIRUBIN change from baseline: patients in range, n(%) [9]: 12(34.3%)
ALKALINE PHOSPHATASE change from baseline: patients in range, n(%) [10]: 19(59.4%)
ALT (SGPT) change from baseline: patients in range, n(%) [10]: 19(59.4%)
AST (SGOT) change from baseline: patients in range, n(%) [10]: 16(50.0%)
TOTAL BILIRUBIN change from baseline: patients in range, n(%) [10]: 14(43.8%)
ALKALINE PHOSPHATASE change from baseline: patients in range, n(%) [11]: 4(11.4%)
ALT (SGPT) change from baseline: patients in range, n(%) [11]: 9(25.7%)
AST (SGOT) change from baseline: patients in range, n(%) [11]: 6(17.1%)
TOTAL BILIRUBIN change from baseline: patients in range, n(%) [11]: 7(20.0%)
ALKALINE PHOSPHATASE change from baseline: patients in range, n(%) [12]: 9(28.1%)
ALT (SGPT) change from baseline: patients in range, n(%) [12]: 8(25.0%)
AST (SGOT) change from baseline: patients in range, n(%) [12]: 9(28.1%)
TOTAL BILIRUBIN change from baseline: patients in range, n(%) [12]: 9(28.1%)
ALKALINE PHOSPHATASE change from baseline: patients in range, n(%) [13]: 1(2.9%)
ALT (SGPT) change from baseline: patients in range, n(%) [13]: 1(2.9%)
AST (SGOT) change from baseline: patients in range, n(%) [13]: 4(11.4%)
TOTAL BILIRUBIN change from baseline: patients in range, n(%) [13]: 6(17.1%)
ALKALINE PHOSPHATASE change from baseline: patients in range, n(%) [14]: 1(3.1%)
ALT (SGPT) change from baseline: patients in range, n(%) [14]: 2(6.3%)
AST (SGOT) change from baseline: patients in range, n(%) [14]: 3(9.4%)
TOTAL BILIRUBIN change from baseline: patients in range, n(%) [14]: 6(18.8%)
ALKALINE PHOSPHATASE change from baseline: patients in range, n(%) [15]: 21(60.0%)
ALT (SGPT) change from baseline: patients in range, n(%) [15]: 18(51.4%)
AST (SGOT) change from baseline: patients in range, n(%) [15]: 17(48.6%)
TOTAL BILIRUBIN change from baseline: patients in range, n(%) [15]: 8(22.9%)
ALKALINE PHOSPHATASE change from baseline: patients in range, n(%) [16]: 20(62.5%)
ALT (SGPT) change from baseline: patients in range, n(%) [16]: 18(56.3%)
AST (SGOT) change from baseline: patients in range, n(%) [16]: 15(46.9%)
TOTAL BILIRUBIN change from baseline: patients in range, n(%) [16]: 11(34.4%)
ALKALINE PHOSPHATASE change from baseline: patients in range, n(%) [17]: 4(11.4%)
ALT (SGPT) change from baseline: patients in range, n(%) [17]: 4(11.4%)
AST (SGOT) change from baseline: patients in range, n(%) [17]: 6(17.1%)
TOTAL BILIRUBIN change from baseline: patients in range, n(%) [17]: 10(28.6%)
ALKALINE PHOSPHATASE change from baseline: patients in range, n(%) [18]: 5(15.6%)
ALT (SGPT) change from baseline: patients in range, n(%) [18]: 11(34.4%)
AST (SGOT) change from baseline: patients in range, n(%) [18]: 11(34.4%)
TOTAL BILIRUBIN change from baseline: patients in range, n(%) [18]: 10(31.3%)
ALKALINE PHOSPHATASE change from baseline: patients in range, n(%) [19]: 0(0.0%)
ALT (SGPT) change from baseline: patients in range, n(%) [19]: 4(11.4%)
AST (SGOT) change from baseline: patients in range, n(%) [19]: 3(8.6%)
TOTAL BILIRUBIN change from baseline: patients in range, n(%) [19]: 4(11.4%)
ALKALINE PHOSPHATASE change from baseline: patients in range, n(%) [20]: 4(12.5%)
ALT (SGPT) change from baseline: patients in range, n(%) [20]: 0(0.0%)
AST (SGOT) change from baseline: patients in range, n(%) [20]: 3(9.4%)
TOTAL BILIRUBIN change from baseline: patients in range, n(%) [20]: 6(18.8%)
fraction of individuals experiencing a decrease of more than 5% in ALT versus placebo (beginning at 4 weeks after commencement of treatment): greater fraction of individuals experiencing a decrease of more than 5%
ALT change from baseline in patients with abnormal baseline values (FIG. 5) [21]: statistically significant improvements
AST change from baseline in patients with abnormal baseline values (FIG. 7) [21]: statistically significant improvements
average level of ALP relative to baseline (FIG. 4) (groups receiving teduglutide): decreased relative to baseline for the entire period of the study
percent of individuals experiencing an increase of greater than 5% in ALP or ALT versus placebo (groups receiving teduglutide): effective prophylactic against increases in biomarkers associated with liver dysfunction
average decrease of the level of ALT from baseline (FIG. 1) (groups receiving teduglutide, maintained for the entire duration of the study): about 10 U/L
individuals experiencing a decrease in ALP greater than 5% from baseline (within 4 weeks of the beginning of treatment, groups receiving teduglutide): roughly 60%
